# doi:10.1101/2021.10.07.463234v2 (biorxiv, 2021)
# Structures can show the parent of a compound that is named as a salt. Bridge positions count the residues as written; N and C are the ends. Peptide text beside a SMILES is read from it.
# Target: SARS-CoV-2 Mac1 (Severe acute respiratory syndrome coronavirus 2, UniProt P0DTD1)
# Test: biochemical
# Settings: 100 µM; inhibitor
row,Structure (SMILES),%inhibition [%]
1,CCC[C@H](NC(=O)[C@@H]1[C@H]2CCC[C@H]2CN1C(=O)[C@@H](NC(=O)[C@@H](NC(=O)c1cnccn1)C1CCCCC1)C(C)(C)C)C(=O)C(=O)NC1CC1 [Telaprevir (VX-950)],0
2,COc1cc2nc(N3CCN(C(=O)C4CCCO4)CC3)nc(N)c2cc1OC (stereo not drawn) [Terazosin HCl Dihydrate],6.293
3,COc1cc2nc(N3CCN(C(=O)C4CCCO4)CC3)nc(N)c2cc1OC (stereo not drawn) [Terazosin HCl],2.055
4,CN(C/C=C/C#CC(C)(C)C)Cc1cccc2ccccc12 [Terbinafine HCl],13.33
5,CN(C/C=C/C#CC(C)(C)C)Cc1cccc2ccccc12 [Terbinafine],49.96
6,CN1c2ccccc2C(NCCCCCCC(=O)O)c2ccc(Cl)cc2S1(=O)=O (stereo not drawn) [Tianeptine sodium],0
7,CN1c2ccccc2C(NCCCCCCC(=O)O)c2ccc(Cl)cc2S1(=O)=O (stereo not drawn) [Tianeptine],12.39
8,O=c1sn(-c2cccc3ccccc23)c(=O)n1Cc1ccccc1 [Tideglusib],42.74
9,CC[C@H]1OC(=O)C[C@@H](O)[C@H](C)[C@@H](O[C@@H]2O[C@H](C)[C@@H](O)[C@H](N(C)C)[C@H]2O)[C@@H](CCN2C[C@H](C)C[C@H](C)C2)C[C@@H](C)C(=O)/C=C/C(C)=C/[C@@H]1CO[C@@H]1O[C@H](C)[C@@H](O)[C@@H](OC)[C@H]1OC [Tilmicosin phosphate],0
10,CC[C@H]1OC(=O)C[C@@H](O)[C@H](C)[C@@H](O[C@@H]2O[C@H](C)[C@@H](O)[C@H](N(C)C)[C@H]2O)[C@@H](CCN2C[C@H](C)C[C@H](C)C2)C[C@@H](C)C(=O)/C=C/C(C)=C/[C@@H]1CO[C@@H]1O[C@H](C)[C@@H](O)[C@@H](OC)[C@H]1OC [Tilmicosin],23.11
11,NC[C@H]1O[C@H](O[C@H]2[C@H](O)[C@@H](O[C@H]3O[C@H](CO)[C@@H](O)[C@H](N)[C@H]3O)[C@H](N)C[C@@H]2N)[C@H](N)C[C@@H]1O [Tobramycin sulfate],7.872
12,NC[C@H]1O[C@H](O[C@H]2[C@H](O)[C@@H](O[C@H]3O[C@H](CO)[C@@H](O)[C@H](N)[C@H]3O)[C@H](N)C[C@@H]2N)[C@H](N)C[C@@H]1O [Tobramycin],0

# Same assay, conditions: read-out: %inhibition
row,Structure (SMILES),inhibition at 100 µM [%]
1,Cn1nnc(-c2ccc(-c3ccc(N4C[C@H](COP(=O)(O)O)OC4=O)cc3F)cn2)n1 [Tedizolid Phosphate],0
2,Cn1nnc(-c2ccc(-c3ccc(N4C[C@H](CO)OC4=O)cc3F)cn2)n1 [Tedizolid],0
3,"O=c1[nH]c(=O)n(C2CCCO2)cc1F (stereo not drawn) [Tegafur (FT-207, NSC 148958)]",0
4,CCCCCNC(=N)N/N=C/c1c[nH]c2ccc(OC)cc12 [Tegaserod Maleate],1.73
5,Cc1cn([C@@H]2C[C@@H](O)[C@H](CO)O2)c(=O)[nH]c1=O [Telbivudine],0
6,CCCc1nc2c(C)cc(-c3nc4ccccc4n3C)cc2n1Cc1ccc(-c2ccccc2C(=O)O)cc1 [Telmisartan],27.9
7,CCOC(=O)[C@@H](N)Cc1ccc(-c2cc(O[C@H](c3ccc(Cl)cc3-n3ccc(C)n3)C(F)(F)F)nc(N)n2)cc1 [Telotristat Etiprate (LX 1606 Hippurate)],0
8,CCOC(=O)[C@H](CCc1ccccc1)N[C@H]1CS[C@H](c2cccs2)CN(CC(=O)O)C1=O [Temocapril HCl],0
9,Cn1nnc2c(C(N)=O)ncn2c1=O [Temozolomide],34.1
10,"CO[C@H]1C[C@@H]2CC[C@@H](C)[C@@](O)(O2)C(=O)C(=O)N2CCCC[C@H]2C(=O)O[C@H]([C@H](C)C[C@@H]2CC[C@@H](OC(=O)C(C)(CO)CO)[C@H](OC)C2)CC(=O)[C@H](C)/C=C(\C)[C@@H](O)[C@@H](OC)C(=O)[C@H](C)C[C@H](C)/C=C/C=C/C=C/1C [Temsirolimus (CCI-779, NSC 683864)]",14.6
11,Cc1cc(N2CCN([C@@H]3CN[C@H](C(=O)N4CCSC4)C3)CC2)n(-c2ccccc2)n1 [Teneligliptin hydrobromide],6.56
12,COc1cc([C@@H]2c3cc4c(cc3[C@@H](O[C@@H]3O[C@@H]5CO[C@@H](c6cccs6)O[C@H]5[C@H](O)[C@H]3O)[C@H]3COC(=O)[C@H]23)OCO4)cc(OC)c1O [Teniposide],12.8
13,CC(C)OC(=O)[C@H](C)N[P@](=O)(CO[C@H](C)Cn1cnc2c(N)ncnc21)Oc1ccccc1 [Tenofovir Alafenamide (GS-7340)],10.7
14,CC(C)OC(=O)OCOP(=O)(CO[C@H](C)Cn1cnc2c(N)ncnc21)OCOC(=O)OC(C)C [Tenofovir Disoproxil Fumarate],0
15,C[C@H](Cn1cnc2c(N)ncnc21)OCP(=O)(O)O [Tenofovir],0
16,CN1C(C(=O)Nc2ccccn2)=C(O)c2sccc2S1(=O)=O [Tenoxicam],0
17,CN1CCC(COc2cnc(-c3cccc(Cn4nc(-c5cccc(C#N)c5)ccc4=O)c3)nc2)CC1 [Tepotinib (EMD 1214063)],0
18,CC(=O)CC/C=C(\C)CC/C=C(\C)CC/C=C(\C)CCC=C(C)C [Teprenone],30.7
19,CC(C)(C)NCC(O)c1cc(O)cc(O)c1 (stereo not drawn) [Terbutaline Sulfate],0

row,Structure (SMILES),inhibition at 100 µM [%]
1,CC(C)(C)c1ccc(C(O)CCCN2CCC(C(O)(c3ccccc3)c3ccccc3)CC2)cc1 (stereo not drawn) [Terfenadine],11
2,C/C(O)=C(\C#N)C(=O)Nc1ccc(C(F)(F)F)cc1 [Teriflunomide],12.5
3,NCCCC[C@H](NC(=O)[C@@H]1CCCN1C(=O)[C@@H]1CSSC[C@H](NC(=O)CNC(=O)CNC(=O)CN)C(=O)N[C@@H](Cc2ccc(O)cc2)C(=O)N[C@@H](Cc2ccccc2)C(=O)N[C@@H](CCC(N)=O)C(=O)N[C@@H](CC(N)=O)C(=O)N1)C(=O)NCC(N)=O [Terlipressin Acetate] (H-GGGCYFQNCPKG-NH2; disulfide 4-9),0
4,CC1(O)CCC(C(C)(C)O)CC1 (stereo not drawn) [Terpin hydrate],0
5,CCCCCCC(=O)O[C@H]1CC[C@H]2[C@@H]3CCC4=CC(=O)CC[C@]4(C)[C@H]3CC[C@]12C [Testosterone Enanthate],0
6,COc1cc2c(cc1OC)[C@H]1CC(=O)[C@H](CC(C)C)CN1CC2 [Tetrabenazine (Xenazine)],18.7
7,CCCCNc1ccc(C(=O)OCCN(C)C)cc1 [Tetracaine HCl],9.17
8,CN(C)[C@@H]1C(=O)C(C(N)=O)=C(O)[C@@]2(O)C(=O)C3=C(O)c4c(O)cccc4[C@@](C)(O)[C@H]3C[C@@H]12 [Tetracycline HCl],22.7
9,c1ccc2c(c1)CCCC2C1=NCCN1 (stereo not drawn) [Tetrahydrozoline HCl],0
10,c1ccc(C2CN3CCSC3=N2)cc1 (stereo not drawn) [Tetramisole HCl],0
11,CC(C)(CO)c1cc2cc(NC(=O)C3(c4ccc5c(c4)OC(F)(F)O5)CC3)c(F)cc2n1C[C@@H](O)CO [Tezacaftor(VX-661)],16.1
12,O=C1CCC(N2C(=O)c3ccccc3C2=O)C(=O)N1 (stereo not drawn) [Thalidomide],14
13,c1ccc2[nH]c(-c3cscn3)nc2c1 [Thiabendazole],21.5
14,Cc1ncc(C[n+]2csc(CCO)c2C)c(N)n1 [Thiamine HCl (Vitamin B1)],0
15,CS(=O)(=O)c1ccc([C@@H](O)[C@@H](CO)NC(=O)C(Cl)Cl)cc1 [Thiamphenicol],13.4
16,Nc1nc2[nH]cnc2c(=S)[nH]1 [Thioguanine],18.9
17,S=P(N1CC1)(N1CC1)N1CC1 [Thiotepa],21.5
18,Cc1ccc(C(C)C)c(O)c1 [Thymol],0.387
19,Cc1ccsc1C(=CCCN1CCC[C@@H](C(=O)O)C1)c1sccc1C [Tiagabine],9.64

row,Structure (SMILES),inhibition at 100 µM [%]
1,CC(C(=O)O)c1ccc(C(=O)c2ccccc2)s1 (stereo not drawn) [Tiaprofenic acid],26.3
2,CCCSc1nc(N[C@@H]2C[C@H]2c2ccc(F)c(F)c2)c2nnn([C@@H]3C[C@H](OCCO)[C@@H](O)[C@H]3O)c2n1 [Ticagrelor],6.12
3,CC1(C)S[C@@H]2[C@H](NC(=O)[C@H](C(=O)O)c3ccsc3)C(=O)N2[C@H]1C(=O)O [Ticarcillin sodium],7.19
4,Clc1ccccc1CN1CCc2sccc2C1 [Ticlopidine HCl],0.00536
5,CN(C)c1cc(NC(=O)CNC(C)(C)C)c(O)c2c1C[C@H]1C[C@H]3[C@H](N(C)C)C(O)=C(C(N)=O)C(=O)[C@@]3(O)C(O)=C1C2=O [Tigecycline],0
6,CCNC1(c2cccs2)CCCCC1=O (stereo not drawn) [Tiletamine Hydrochloride],0
7,CC(C)(C)NC[C@H](O)COc1nsnc1N1CCOCC1 [Timolol Maleate],11.9
8,CCS(=O)(=O)CCn1c([N+](=O)[O-])cnc1C [Tinidazole],0
9,Clc1ccc(C(Cn2ccnc2)OCc2ccsc2Cl)c(Cl)c1 (stereo not drawn) [Tioconazole],7.13
10,CC(S)C(=O)NCC(=O)O (stereo not drawn) [Tiopronin],0
11,C[N+]1(C)[C@@H]2C[C@@H](OC(=O)C(O)(c3cccs3)c3cccs3)C[C@H]1[C@@H]1O[C@@H]12 [Tiotropium Bromide hydrate],19.5
12,O=c1oc2cc(O)ccc2s1 [Tioxolone],23.8
13,N=C1CCCN1Cc1[nH]c(=O)[nH]c(=O)c1Cl [Tipiracil hydrochloride],0
14,CCCCS(=O)(=O)N[C@@H](Cc1ccc(OCCCCC2CCNCC2)cc1)C(=O)O [Tirofiban Hydrochloride],9.42
15,O=C1NC(=O)[C@@H](c2cn3c4c(cccc24)CCC3)[C@@H]1c1c[nH]c2ccccc12 [Tivantinib (ARQ 197)],1.02
16,COc1cc2nccc(Oc3ccc(NC(=O)Nc4cc(C)on4)c(Cl)c3)c2cc1OC [Tivozanib (AV-951)],9.18
17,Clc1ccc2nsnc2c1NC1=NCCN1 [Tizanidine HCl],0
18,CCc1ccc(Cc2ccc3c(c2)[C@]2(OC3)O[C@H](CO)[C@@H](O)[C@H](O)[C@H]2O)cc1 [Tofogliflozin(CSG 452)],1.23
19,c1ccc(CC2=NCCN2)cc1 [Tolazoline HCl],7.01
